Test results from the supplement of paper PMC10307832.

Key:
Experiment in all cases: relative viability (nuclei count vs DMSO), 5 days (fraction); higher = more cells survive
Salubrinal + Lapatinib = compound: O=C(/C=C/c1ccccc1)NC(NC(=S)Nc1cccc2cccnc12)C(Cl)(Cl)Cl [Salubrinal] + CS(=O)(=O)CCNCc1ccc(-c2ccc3ncnc(Nc4ccc(OCc5cccc(F)c5)c(Cl)c4)c3c2)o1 [Lapatinib] (partner 2 µM)
Summary of the method: (§1)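 Cells from lung cancer lines were seeded into 1536-well plates and, one day later, dosed by pin tool. Treatments were either a single drug or a fixed dose of an anchor drug with five library-drug doses (not always all listed) in √10 steps. After 5 days, nuclei were stained in a one-step fixation (final 0.05% Triton X-100, 1% formaldehyde, 1 ug/ml Hoechst) and counted on 4× images, and relative viability is the treated-to-vehicle nuclei ratio, as the median of duplicate plates.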

[1] = compound: Cc1ccc2nc(NCCN)c3ncc(C)n3c2c1 + CS(=O)(=O)N1CCN(Cc2cc3nc(-c4cccc5[nH]ncc45)nc(N4CCOCC4)c3s2)CC1 [Pictilisib] (partner 1 µM)
Summary of the method: as §1

Salubrinal + Alpelisib = compound: O=C(/C=C/c1ccccc1)NC(NC(=S)Nc1cccc2cccnc12)C(Cl)(Cl)Cl [Salubrinal] + Cc1nc(NC(=O)N2CCC[C@H]2C(N)=O)sc1-c1ccnc(C(C)(C)C(F)(F)F)c1 [Alpelisib] (partner 2 µM)
Summary of the method: as §1

[2] = compound: Cc1ccc2nc(NCCN)c3ncc(C)n3c2c1 + CS(=O)(=O)CCNCc1ccc(-c2ccc3ncnc(Nc4ccc(OCc5cccc(F)c5)c(Cl)c4)c3c2)o1 [Lapatinib] (partner 2 µM)
Summary of the method: as §1

Row | Cell Line | relative viability (Salubrinal + Lapatinib; first compound 0.08 µM) | relative viability (Salubrinal + Lapatinib; first compound 0.253 µM) | relative viability (Salubrinal + Lapatinib; first compound 0.8 µM) | relative viability (Salubrinal + Lapatinib; first compound 2.53 µM) | relative viability (Salubrinal + Lapatinib; first compound 8 µM) | relative viability ([1]; first compound 0.04 µM) | relative viability ([1]; first compound 0.1265 µM) | relative viability ([1]; first compound 0.4 µM) | relative viability ([1]; first compound 1.265 µM) | relative viability ([1]; first compound 4 µM) | relative viability (Salubrinal + Alpelisib; first compound 0.08 µM) | relative viability (Salubrinal + Alpelisib; first compound 0.253 µM) | relative viability (Salubrinal + Alpelisib; first compound 0.8 µM) | relative viability (Salubrinal + Alpelisib; first compound 2.53 µM) | relative viability (Salubrinal + Alpelisib; first compound 8 µM) | relative viability ([2]; first compound 0.04 µM) | relative viability ([2]; first compound 0.1265 µM) | relative viability ([2]; first compound 0.4 µM) | relative viability ([2]; first compound 1.265 µM) | relative viability ([2]; first compound 4 µM)
1 | NCI-H1437 | 0.925 | 0.763 | 0.94 | 0.878 | 0.653 | 0.427 | 0.449 | 0.443 | 0.369 | 0.374 | 1.12 | 0.782 | 1.15 | 0.94 | 0.969 | 0.817 | 0.794 | 0.777 | 0.819 | 0.733
2 | COR-L23 | 1.38 | 0.626 | 1.37 | 1 | 0.539 | 0.866 | 0.7 | 0.741 | 0.85 | 0.741 | 0.908 | 0.792 | 0.875 | 0.965 | 0.631 | 1.27 | 0.874 | 0.924 | 0.837 | 0.853
3 | ABC-1 | 1.46 | 1.35 | 1.17 | 1.25 | 1.15 | 0.721 | 0.78 | 0.822 | 0.813 | 0.678 | 1 | 0.952 | 1.2 | 1 | 1.12 | 1.18 | 1.16 | 1.12 | 0.783 | 1.03
4 | SK-MES-1 | 0.488 | 0.405 | 0.499 | 0.42 | 0.437 | 0.411 | 0.345 | 0.341 | 0.378 | 0.35 | 1.01 | 0.888 | 1.09 | 0.992 | 0.664 | 0.503 | 0.512 | 0.493 | 0.447 | 0.472
5 | NCI-H838 | 1.1 | 0.914 | 1.23 | 1.03 | 0.674 | 0.43 | 0.416 | 0.409 | 0.423 | 0.365 | 1.03 | 0.629 | 0.969 | 1.01 | 0.942 | 1.08 | 1.01 | 0.919 | 0.974 | 0.837
6 | A549 | 1.08 | 0.954 | 1.03 | 0.939 | 0.886 | 0.587 | 0.439 | 0.451 | 0.451 | 0.345 | 0.726 | 0.806 | 0.755 | 0.76 | 0.616 | 1.23 | 0.941 | 0.918 | 1 | 0.83
7 | A-427 | 1.09 | 0.966 | 1.11 | 0.961 | 1.03 | 0.743 | 0.653 | 0.596 | 0.691 | 0.702 | 1.06 | 1.16 | 1.17 | 1.16 | 1.15 | 1.13 | 1.06 | 1.02 | 0.957 | 1.06
8 | NCI-H1792 | 1.11 |  | 1.64 | 0.914 | 0.873 | 0.348 | 0.244 | 0.309 | 0.259 | 0.242 | 0.8 |  | 0.646 | 0.676 | 0.611 | 0.944 | 0.904 | 0.837 | 0.857 | 0.81
9 | LCLC-97TM1 | 1.03 | 0.799 | 0.842 |  | 0.857 | 0.208 | 0.248 | 0.187 | 0.216 | 0.199 | 0.258 | 0.302 | 0.254 |  | 0.276 | 1.06 | 1.42 | 0.78 | 1.33 | 1
10 | NCI-H1703 | 1.24 |  | 1.24 | 0.917 | 0.892 | 0.299 | 0.248 | 0.257 | 0.321 | 0.233 | 0.394 | 0.359 | 0.324 | 0.365 | 0.374 | 1.15 | 0.958 | 1.03 | 1.19 | 0.997
11 | LCLC-103H |  |  |  |  |  | 0.534 | 0.644 | 0.561 | 0.6 | 0.576 | 0.953 | 0.917 | 1.05 | 1.02 | 0.932 |  |  |  |  | 
12 | PC-3 [JPC-3] | 0.436 | 0.423 | 0.459 | 0.484 | 0.472 | 0.758 | 0.752 | 0.731 | 0.725 | 0.7 | 1.08 | 0.98 | 1.13 | 1.07 | 1.03 | 0.475 | 0.45 | 0.42 | 0.448 | 0.424
13 | BEN | 0.677 | 0.732 | 0.751 | 0.767 | 0.894 | 0.628 | 0.584 | 0.596 | 0.481 | 0.556 | 1.23 | 0.82 | 1.3 | 1 | 1.03 | 0.894 | 0.6 | 0.827 | 0.77 | 0.709
14 | NCI-H1666 | 0.582 | 0.56 | 0.767 | 0.58 | 0.691 | 0.372 | 0.478 | 0.402 | 0.554 | 0.449 | 0.985 | 0.791 | 0.923 | 1.01 | 0.993 | 0.788 | 0.64 | 0.505 | 0.478 | 0.568
15 | LC-2-ad | 1.07 | 0.608 | 1.1 | 0.971 | 0.868 | 0.504 | 0.683 | 0.439 | 0.429 | 0.423 | 1.01 | 0.784 | 0.92 | 0.881 | 0.831 | 0.939 | 0.922 | 0.915 | 0.945 | 0.89
16 | SK-LU-1 | 0.972 | 0.874 | 0.899 | 0.926 | 0.703 | 0.573 | 0.507 | 0.604 | 0.562 | 0.291 | 1.1 | 0.864 | 1.35 | 1.07 | 0.951 | 1.06 | 0.951 | 0.889 | 0.948 | 0.852
17 | ChaGo-K-1 |  |  |  |  |  | 0.697 | 0.743 | 0.661 | 0.671 | 0.443 |  |  |  |  |  |  |  |  |  | 
18 | NCI-H441 |  |  |  |  |  | 0.557 | 0.464 | 0.454 | 0.505 | 0.472 | 0.832 | 0.61 | 1.01 | 0.709 | 0.645 |  |  |  |  | 
